According to the CheMixHub viscosity set:
“And” between values parts separate entries of the source, which are not always exact repeats. Equal entries are not always repeated.

Key:
[1] = xn = mol fraction of the nth substance listed; conditions: 101 kPa

CC(=O)N(C(C)C)C(C)C
Conditions | viscosity [mPa·s]
298.16 K, 101 kPa | 2.18

CCCCCCC(=O)O
Conditions | viscosity [mPa·s]
298.15 K, 101 kPa | 3.784

CCCCCCCCCCCC(=O)OC
100 kPa
Conditions | viscosity
293.15 K | 3.12 mPa·s and 3.128 mPa·s
298.15 K | 2.778 mPa·s
303.15 K | 2.491 mPa·s
308.15 K | 2.25 mPa·s
318.15 K | 1.877 mPa·s
323.15 K | 1.712 mPa·s and 1.717 mPa·s

CCCCCCCCCCCCBr
101 kPa
Conditions | viscosity [mPa·s]
298.08 K | 3.373
303.1 K | 3.024
308.11 K | 2.689
313.11 K | 2.437

CCCCCCCCn1cc[n+](C)c1.[Cl-]
101 kPa
Conditions | viscosity [mPa·s]
313.15 K | 4062
323.15 K | 2043

CCCCCC[N+](CC)(CC)CC.O=S(=O)([N-]S(=O)(=O)C(F)(F)F)C(F)(F)F
100 kPa
Conditions | viscosity [mPa·s]
293.15 K | 241.4
313.15 K | 80.71

CCCCCC[n+]1ccn(C)c1.O=S(=O)([O-])C(F)(F)F
100 kPa
Conditions | viscosity [mPa·s]
293.15 K | 194.9
298.15 K | 150.8
303.15 K | 115.7
308.15 K | 91.13
313.15 K | 74.03

CCOC(C)=O
Conditions | viscosity
296 K, 101.3 kPa | 0.437 mPa·s
298 K, 101.3 kPa | 0.439 mPa·s and 0.439 mPa·s
298.15 K, 100 kPa | 0.42 mPa·s and 0.42 mPa·s
298.15 K, 101.3 kPa | 0.4407 mPa·s (2×) and 0.439 mPa·s
298.15 K, 101.33 kPa | 0.457 mPa·s and 0.424 mPa·s and 0.424 mPa·s
303.15 K, 101.3 kPa | 0.4178 mPa·s and 0.4178 mPa·s
308.15 K, 101.3 kPa | 0.3972 mPa·s and 0.3972 mPa·s
313.15 K, 101.3 kPa | 0.376 mPa·s and 0.376 mPa·s
313.15 K, 101.32 kPa | 0.369 mPa·s
313.15 K, 101.33 kPa | 0.368 mPa·s
318 K, 101.3 kPa | 0.3829 mPa·s
318 K, 101.33 kPa | 0.3829 mPa·s
318.15 K, 101.3 kPa | 0.358 mPa·s
318.15 K, 101.33 kPa | 0.35 mPa·s
323.15 K, 100 kPa | 0.3053 mPa·s
323.15 K, 101 kPa | 0.341 mPa·s and 0.327 mPa·s and 0.3356 mPa·s
323.15 K, 101.3 kPa | 0.3407 mPa·s and 0.3407 mPa·s

CCOc1ccccc1
viscosity
Conditions | 101 kPa | 101.3 kPa | 101.33 kPa
293.15 K | 1.222 mPa·s and 1.27 mPa·s | 1.366 mPa·s | 1.231 mPa·s
293.35 K | 1.24 mPa·s | – | –
298 K | – | – | 1.164 mPa·s
302.75 K | 1.03 mPa·s | – | –
303 K | – | – | 1.068 mPa·s
303.15 K | 1.038 mPa·s and 1.05 mPa·s | – | 1.036 mPa·s
308 K | – | – | 0.983 mPa·s
308.15 K | 0.978 mPa·s | 0.9842 mPa·s | –
313.15 K | 0.901 mPa·s and 0.875 mPa·s | – | 0.894 mPa·s
318.15 K | 0.839 mPa·s | 0.8284 mPa·s | –
323.15 K | 0.782 mPa·s | – | –

CC[NH+](CC)CC.O=S(=O)([O-])O
101 kPa
Conditions | viscosity
303.15 K | 153 mPa·s and 153 mPa·s
308.15 K | 138 mPa·s and 138 mPa·s
313.15 K | 108 mPa·s

COC(=O)CC(C)=O
101.3 kPa
Conditions | viscosity
298.15 K | 1.566 mPa·s and 1.564 mPa·s and 1.564 mPa·s
303.15 K | 1.422 mPa·s and 1.421 mPa·s and 1.421 mPa·s
308.15 K | 1.298 mPa·s and 1.298 mPa·s

COCCOCC[n+]1ccn(CCC#N)c1.O=S(=O)([N-]S(=O)(=O)C(F)(F)F)C(F)(F)F
101.33 kPa
Conditions | viscosity [mPa·s]
293.15 K | 296.5
303.15 K | 169
313.15 K | 103.2
323.15 K | 74.62

COc1ccc(C=O)cc1
101 kPa
Conditions | viscosity
303.15 K | 3.251 mPa·s and 3.578 mPa·s and 3.251 mPa·s
308.15 K | 3.131 mPa·s and 3.035 mPa·s and 3.131 mPa·s
313.15 K | 2.961 mPa·s and 2.649 mPa·s and 2.961 mPa·s
318.15 K | 2.682 mPa·s and 2.34 mPa·s and 2.682 mPa·s

CS(=O)(=O)[O-].C[N+](C)(CCO)CCO
101.33 kPa
Conditions | viscosity [mPa·s]
298.15 K | 1495
303.15 K | 1021
308.15 K | 716.3
313.15 K | 513.1
318.15 K | 377.6
323.15 K | 282.4

Clc1cccc(Cl)c1
viscosity
Conditions | 298.15 K | 303.15 K | 308.15 K | 313.15 K | 318.15 K
100 kPa | 1.017 mPa·s | 0.945 mPa·s | 0.895 mPa·s and 0.906 mPa·s | 0.849 mPa·s | 0.799 mPa·s and 0.809 mPa·s
101 kPa | – | 0.949 mPa·s and 0.945 mPa·s | 0.895 mPa·s and 0.895 mPa·s | 0.849 mPa·s | 0.799 mPa·s

OCC(O)CO
Conditions | viscosity
293.15 K, 100 kPa | 1360 mPa·s
294 K, 101 kPa | 1390 mPa·s
298 K, 101 kPa | 946.5 mPa·s
298.15 K, 100 kPa | 860 mPa·s
298.15 K, 101.33 kPa | 803.7 mPa·s
303 K, 101 kPa | 611.3 mPa·s and 409.6 mPa·s
303.15 K, 100 kPa | 542 mPa·s
308 K, 101 kPa | 413.9 mPa·s
308.15 K, 101 kPa | 405.8 mPa·s
308.15 K, 101.33 kPa | 351.5 mPa·s
313 K, 101 kPa | 285.5 mPa·s
313.15 K, 100 kPa | 217 mPa·s
313.15 K, 101 kPa | 231 mPa·s and 284 mPa·s and 289.4 mPa·s
318 K, 101 kPa | 213.7 mPa·s
318.15 K, 101 kPa | 182.5 mPa·s and 176.2 mPa·s
318.15 K, 101.33 kPa | 157.1 mPa·s
323 K, 101 kPa | 141 mPa·s
323.15 K, 101 kPa | 142 mPa·s and 153.8 mPa·s

[O-][Cl+3]([O-])([O-])O[Cl+3]([O-])([O-])[O-]
Conditions | viscosity [mPa·s]
293.15 K, 101.33 kPa | 0.698

CC(=O)N(C(C)C)C(C)C + O
[1], 298.16 K
Conditions | viscosity [mPa·s]
x2 = 0.0812 | 2.4
x2 = 0.2041 | 2.83
x2 = 0.3933 | 3.61
x2 = 0.5827 | 4.68
x2 = 0.6893 | 5.21
x2 = 0.7296 | 5.3
x2 = 0.7747 | 5.26
x2 = 0.8218 | 4.96
x2 = 0.856 | 4.59

CC(C)(C)N1CCCC1=O + O
[1], 298.16 K
Conditions | viscosity [mPa·s]
x1 = 0.1105 | 3.47
x1 = 0.261 | 4.04
x1 = 0.4035 | 4.76
x1 = 0.5487 | 5.49
x1 = 0.6233 | 5.79
x1 = 0.6749 | 5.86
x1 = 0.7189 | 5.81
x1 = 0.7798 | 5.44
x1 = 0.8652 | 4.22

CC(C)[C@H](N)C(=O)[O-].[Na+] + O
viscosity [mPa·s], [1]
Conditions | x1 = 0.004484 | x1 = 0.008927 | x1 = 0.01333 | x1 = 0.0177 | x1 = 0.02202 | x1 = 0.02631
293.15 K | 1.165 | 1.356 | 1.571 | 1.816 | 2.087 | 2.385
303.15 K | 0.919 | 1.057 | 1.214 | 1.382 | 1.573 | 1.786
313.15 K | 0.747 | 0.85 | 0.969 | 1.094 | 1.233 | 1.387
323.15 K | 0.621 | 0.702 | 0.793 | 0.889 | 0.994 | 1.11

CCCC[P+](CC)(CCCC)CCCC.[Br-] + O
Conditions | viscosity [mPa·s]
[1], 303.15 K, x1 = 0.008931 | 1.225
